This is an account of results in US20240262863A1, “PEPTIDE FRAGMENT AND USE THEREOF” (TOAGOSEI CO., LTD., priority 2021, published 2024).

FAM = 5(6)-carboxyfluorescein

This experiment relates to HeLa cells. Nature of the experiment: Evaluation of cell membrane penetrating ability of FAM-labelled constructs by flow cytometry. Conditions: for MFI (mean fluorescent intensity): 10 μM in culture solution, 0.5% DMSO, 20 h incubation at 37° C., flow cytometer detector FL2; for MFI value compared to Example 2: 10 μM, 20 h incubation. It is filed as cell-based, human. The procedure: The cell membrane penetrating ability of samples 1 to 3 was evaluated using HeLa cells (an established cell line derived from human cervical cancer cells) as eukaryotic cells. […] In addition, “FAM” in Table 2 indicates the abovementioned fluorescent dye.
HeLa cells were cultured in DMEM (Dulbecco's modified Eagle's medium, manufactured by Fuji Film Wako Pure Chemical Industries, Cat. No. 043-30085) containing 10% FBS (fetal bovine serum), which is an ordinary culture medium.
HeLa cells adhering to the culture plate were washed with PBS, 0.25% trypsin/EDTA solution was added, and the cells were incubated for 3 min at 37° C. After incubation, the same DMEM medium including 10% FBS was added to deactivate the trypsin, and the cells were then precipitated by centrifugation for 5 min at 150×g. The supernatant produced by centrifugation was removed, and the same DMEM including 10% FBS was added to the precipitate (cell pellet) to prepare an approximately 1×10^5 cells/mL cell suspension. A total of 2 mL of the cell suspension was added to the wells of a commercial 6-hole (well) plate (AGC Techno Glass Co., Ltd) to seed the cells (at approximately 2×10^5 cells/well). Subsequent culturing for 3 h at 37° C. under conditions of 5% CO2 caused the cells to adhere to the bottom of the wells.
Next, the above 2 mM sample solution 1 was diluted with DMEM including 10% FBS to prepare a sample solution 1 in which the concentration of Sample 1 was 20 μM. A total of 1 mL of the culture supernatant was removed from the wells after the 3 h of culture, and 1 mL of the 20 μM sample solution 1 was added to the wells (that is, the concentration of Sample 1 in the culture solution in the wells was made 10 μM and the DMSO concentration was made 0.5%). The cells were then incubated for 20 h at 37° C. under conditions of 5% CO2. After such 20-h incubation, the culture supernatant was removed from the wells, and the cells in the wells were washed twice with 1 mL of PBS. A total of 200 μL of 0.25% trypsin/EDTA solution was then added to the wells, and the cells were incubated for 3 min at 37° C. After this incubation, 400 μL of the above DMEM containing 10% FBS was added to the wells to deactivate the trypsin, the cell suspension in the well was thereafter transferred to a tube, and the cells were collected. A total of 600 μL of PBS was then added to the wells to wash the wells. The PBS in the wells was then transferred to the above tube to collect the cells remaining in the wells in the tube. This tube was centrifuged for 5 min under conditions of 210×g at 4° C. After centrifugation the supernatant was removed, and the precipitate (cell pellet) was suspended (washed) in 1 mL of PBS and centrifuged under the same conditions as described above. This operation was repeated twice, and the supernatant was thereafter removed to obtain cells (a cell pellet) that had been cultured in medium including Sample 1.
The cell penetrating ability of Sample 1 was analyzed by using flow cytometry with respect to the cells (cell pellet) obtained above. An On-chip Flow cytometer (manufactured by On-chip Biotechnologies Co., Ltd.) was used as the flow cytometer.
For this analysis, the cell pellet obtained above was suspended in 50 μL of PBS. A total of 50 μL of 2× sample buffer for flow cytometry was further added to this suspension to prepare a cell suspension for analysis.
Gating was performed using the flow cytometer on the basis of forward scatter (FSC) and side scatter (SSC), a gate was set for the cell population under analysis, and fluorescent intensity was measured for the cell population within this gate. Analysis was performed so that the cell population was composed of about 10,000 cells. Fluorescent intensity was measured using the fluorescence detector FL2 (optimal detection wavelength close to 543 nm) of the flow cytometer, which can detect the fluorescent wavelength of FAM. […]
On the technique in general: In flow cytometry, cells or beads pass a laser one at a time.

Consider “5(6)-carboxyfluorescein [Example 4, reference compound]”, for which the “MFI (mean fluorescent intensity)” value was found to be 14.3.
Take “FAM-VVKSLVKVVKSLVK-CONH2 ({FAM}-VVKSLVKVVKSLVK-NH2) [Example 1]”: the “MFI (mean fluorescent intensity)” value was determined as 1591 and the “MFI value compared to Example 2” value was “more than twice”.
Consider “FAM-VVRSLVKVVRSLVK-CONH2 ({FAM}-VVRSLVKVVRSLVK-NH2) [Example 2]”, for which the “MFI (mean fluorescent intensity)” value was determined as 715.
On to “FAM-VVRSLVRVVRSLVR-CONH2 ({FAM}-VVRSLVRVVRSLVR-NH2) [Example 3]”, for which the “MFI (mean fluorescent intensity)” value was 489 and the “MFI value compared to Example 2” value is “greatly reduced”.
